{"source": "patent US20160101194A1", "about": "“SMART® Medication Adherence Formulation, Method, Device and System for Topical, Vaginal or Rectal Routes of Administration” (University of Florida Research Foundation, Incorporated, priority 2013, published 2016)", "key": {"[1]": {"conditions": "after vaginal administration with gel; cited from earlier work"}, "[2]": {"experiment": "Breath kinetics of exhaled d6-acetone after oral ingestion of d8-isopropanol", "assay_type": "in vivo", "conditions": "post-ingestion", "protocol": "Either 100 mg d8-isopropanol or 20 mg d8 isopropanol was delivered orally. For oral dosing, 100 or 20 mg of neat d8-isopropanol were placed in a size 4 licap and the licap was swallowed along with 60-100 mL of water. Following administration of d8-isopropanol, exhaled breath was monitored in real time for the presence of d6-acetone and d7-isopropanol using the Orbitrap LCMS.\n(§1) Following application or ingestion, d6-acetone and d7-isopropanol levels were monitored in exhaled breath samples using the LTQ-LCMS. Single full breath samples were administered directly into the modified ESI source at 5 min intervals for ˜4 hours. The ESI source was operated in positive ion mode."}, "[3]": {"experiment": "Breath kinetics of exhaled d6-acetone after topical application of d8-isopropanol in carbomer gel", "assay_type": "in vivo", "conditions": "240 mg transdermal in carbomer gel, post application; maximum still not achieved", "protocol": "240 mg of d8-isopropanol was mixed with 3 mL of a carbomer-based aloe gel. This gel was applied to an approximately 20 cm^2 area of the inner left forearm and covered with a Tagaderm occlusive dressing. To further reduce the permeability of the dressing, the transparent section was covered with a small section of teldar polymer prior to use.\nas §1"}, "[4]": {"conditions": "after oral dosing", "quoted_text": "Data shown are mean±SD. *, P<0.05 for a given time point compared to time point 0 min. The arrow denotes time of capsule ingestion. Concentrations less than the level of 1.0 parts-per-billion (ppb) are noted as “<LOD”."}, "[5]": {"conditions": "40 mg rectal in 3 mL HEC gel", "quoted_text": "The entire contents of the syringe were applied rectally as a bolus. Breath acetone and 2-butanone levels were monitored throughout the experiment by delivering single full breath samples directly into the modified ESI source. Two baseline breath samples were taken immediately prior to application and then at 1-3 min intervals thereafter. The ESI source was operated in positive ion mode. A 0.2% NH4OH:water mobile phase was introduced into the source at a flow rate of 0.1 mL/min during sampling to produce ammonium adducts of the analytes of interest."}}}
{"smiles": "CCCC(C)OC(C)=O", "note": "(stereo not shown) [2-pentyl acetate]", "values": [{"measurement": "parent ester and metabolites observed in breath", "setting": "[1]", "value": "observed in breath"}]}
{"smiles": "[2H]OC([2H])(C([2H])([2H])[2H])C([2H])([2H])[2H]", "note": "[d8-IPA, d8-isopropanol]", "values": [{"measurement": "time by which D6-acetone levels in exhaled breath began to level out", "setting": "[2]; 20 mg oral", "value": "≤ 15", "unit": "min"}, {"measurement": "time by which D6-acetone levels in exhaled breath began to level out", "setting": "[2]; 100 mg oral", "value": "≤ 15", "unit": "min"}, {"measurement": "time to maximum concentration of d-6 acetone in exhaled breath", "setting": "[3]", "value": "> 200", "unit": "min"}]}
{"smiles": "CCC(C)O", "note": "(stereo not shown) [2-butanol]", "values": [{"measurement": "2-butanone concentration in breath", "setting": "[4]", "value": "500-1,000 ppb"}, {"measurement": "time to appearance of 2-butanone in breath", "setting": "[5]", "value": "2 to 3", "unit": "min"}]}
{"smiles": "CCC(C)OC(C)=O", "note": "(stereo not shown) [2-butyl acetate]", "values": [{"measurement": "parent ester and metabolites observed in breath", "setting": "[1]", "value": "observed in breath"}]}
